Measured values taken from PubChem BioAssay (NCI).
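96-well plates; 48 h exposure; 5 concentrations. Endpoints by linear interpolation between flanking doses. Not reached: highest tested concentration assigned. GI50 marks 50% less growth. TGI marks complete inhibition of growth.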

Legend:
Assay in all cases: NCI tumour cell line growth inhibition, 48 h
RXF 393 renal = test system: RXF 393 renal
TK-10 renal = test system: TK-10 renal
SK-OV-3 ovarian = test system: SK-OV-3 ovarian
SK-MEL-5 melanoma = test system: SK-MEL-5 melanoma
786-0 renal = test system: 786-0 renal
MDA-MB-435 = test system: MDA-MB-435
DU-145 prostate = test system: DU-145 prostate
LOX IMVI melanoma = test system: LOX IMVI melanoma
SF-268 CNS = test system: SF-268 CNS
UO-31 renal = test system: UO-31 renal
HS 578T breast = test system: HS 578T breast
NCI-H460 lung = test system: NCI-H460 lung
SF-295 CNS = test system: SF-295 CNS
HOP-62 NSCLC = test system: HOP-62 NSCLC
U251 CNS = test system: U251 CNS
A498 renal = test system: A498 renal
HL-60(TB) leukemia = test system: HL-60(TB) leukemia
SNB-19 CNS = test system: SNB-19 CNS
PC-3 prostate = test system: PC-3 prostate
T-47D breast = test system: T-47D breast
KM12 colon = test system: KM12 colon
HCT-15 colon = test system: HCT-15 colon
SF-539 CNS = test system: SF-539 CNS
K-562 leukemia = test system: K-562 leukemia
ACHN renal = test system: ACHN renal
EKVX NSCLC = test system: EKVX NSCLC
COLO 205 colon = test system: COLO 205 colon
MCF7 breast = test system: MCF7 breast
SW-620 colon = test system: SW-620 colon
MALME-3M melanoma = test system: MALME-3M melanoma
CCRF-CEM leukemia = test system: CCRF-CEM leukemia
OVCAR-4 ovarian = test system: OVCAR-4 ovarian
SK-MEL-2 melanoma = test system: SK-MEL-2 melanoma
SK-MEL-28 melanoma = test system: SK-MEL-28 melanoma
NCI-H23 lung = test system: NCI-H23 lung
RPMI-8226 leukemia = test system: RPMI-8226 leukemia
SNB-75 CNS = test system: SNB-75 CNS
OVCAR-8 ovarian = test system: OVCAR-8 ovarian
SR leukemia = test system: SR leukemia
M14 melanoma = test system: M14 melanoma
HT29 colon = test system: HT29 colon
CAKI-1 renal = test system: CAKI-1 renal
MDA-MB-468 breast = test system: MDA-MB-468 breast
SN12C renal = test system: SN12C renal
NCI/ADR-RES ovarian = test system: NCI/ADR-RES ovarian
HCC-2998 colon = test system: HCC-2998 colon
HOP-92 NSCLC = test system: HOP-92 NSCLC
IGROV1 ovarian = test system: IGROV1 ovarian
UACC-257 melanoma = test system: UACC-257 melanoma
NCI-H522 lung = test system: NCI-H522 lung
UACC-62 melanoma = test system: UACC-62 melanoma
MOLT-4 leukemia = test system: MOLT-4 leukemia
OVCAR-5 ovarian = test system: OVCAR-5 ovarian
A549 NSCLC = test system: A549 NSCLC
OVCAR-3 ovarian = test system: OVCAR-3 ovarian
MDA-MB-231 breast = test system: MDA-MB-231 breast

In the case of `CCC[Se]C(=O)c1ccc(C(=O)[Se]CCC)s1`, the GI50 (RXF 393 renal) is reported as < 10 nM, the TGI (RXF 393 renal) is reported as 64.4 nM and the GI50 (TK-10 renal) is reported as 121 nM. The TGI (TK-10 renal) was 1320 nM, the GI50 (SK-OV-3 ovarian) was 39.5 nM and the TGI (SK-OV-3 ovarian) was 837 nM. For the same compound, the GI50 (SK-MEL-5 melanoma) was < 49.1 nM, the TGI (SK-MEL-5 melanoma) was 159 nM and the GI50 (786-0 renal) was 172 nM. The TGI (786-0 renal) was 2250 nM, the GI50 (MDA-MB-435) was < 10 nM and the TGI (MDA-MB-435) was 19.9 nM. The GI50 (DU-145 prostate) was 95.5 nM, the TGI (DU-145 prostate) was 1300 nM and the GI50 (LOX IMVI melanoma) was < 13.1 nM. The TGI (LOX IMVI melanoma) was < 34.6 nM, the GI50 (SF-268 CNS) was < 11 nM and the TGI (SF-268 CNS) was 67.5 nM. The GI50 (UO-31 renal) was < 20 nM, the TGI (UO-31 renal) was 341 nM and the GI50 (HS 578T breast) was < 10 nM. The TGI (HS 578T breast) was 411 nM, the GI50 (NCI-H460 lung) was < 10 nM and the TGI (NCI-H460 lung) was 10.4 nM. For the same compound, the GI50 (SF-295 CNS) was < 14.4 nM, the TGI (SF-295 CNS) was < 38.5 nM and the GI50 (HOP-62 NSCLC) was < 12 nM. The TGI (HOP-62 NSCLC) was 63.3 nM, the GI50 (U251 CNS) was < 10.6 nM and the TGI (U251 CNS) was 139 nM. For the same compound, the GI50 (A498 renal) was 63.5 nM, the TGI (A498 renal) was 917 nM and the GI50 (HL-60(TB) leukemia) was < 10 nM. For the same compound, the TGI (HL-60(TB) leukemia) was 662 nM, the GI50 (SNB-19 CNS) was < 10 nM and the TGI (SNB-19 CNS) was 131 nM. It also gave a GI50 (PC-3 prostate) of 22.4 nM, a TGI (PC-3 prostate) of 2890 nM and a GI50 (T-47D breast) of 1030 nM. The TGI (T-47D breast) was 10700 nM, the GI50 (KM12 colon) was 27.6 nM and the TGI (KM12 colon) was 1300 nM. The GI50 (HCT-15 colon) was 54.6 nM, the TGI (HCT-15 colon) was 217 nM and the GI50 (SF-539 CNS) was < 10.7 nM. For the same compound, the TGI (SF-539 CNS) was < 21.8 nM, the GI50 (K-562 leukemia) was 41.4 nM and the TGI (K-562 leukemia) was 21400 nM. For the same compound, the GI50 (ACHN renal) was 110 nM, the TGI (ACHN renal) was 1220 nM and the GI50 (EKVX NSCLC) was < 24.6 nM. For the same compound, the TGI (EKVX NSCLC) was 82.1 nM, the GI50 (COLO 205 colon) was 639 nM and the TGI (COLO 205 colon) was 2100 nM. For the same compound, the GI50 (MCF7 breast) was < 10 nM, the TGI (MCF7 breast) was 170 nM and the GI50 (SW-620 colon) was 57.3 nM. The TGI (SW-620 colon) was 320 nM, the GI50 (MALME-3M melanoma) was < 35.2 nM and the TGI (MALME-3M melanoma) was 118 nM. The GI50 (CCRF-CEM leukemia) was 1660 nM, the TGI (CCRF-CEM leukemia) was 16100 nM and the GI50 (OVCAR-4 ovarian) was 2870 nM. For the same compound, the TGI (OVCAR-4 ovarian) was 30000 nM, the GI50 (SK-MEL-2 melanoma) was 40.8 nM and the TGI (SK-MEL-2 melanoma) was 1140 nM. For the same compound, the GI50 (SK-MEL-28 melanoma) was < 10 nM, the TGI (SK-MEL-28 melanoma) was 29.4 nM and the GI50 (NCI-H23 lung) was 19.7 nM. For the same compound, the TGI (NCI-H23 lung) was 114 nM, the GI50 (RPMI-8226 leukemia) was 300 nM and the TGI (RPMI-8226 leukemia) was 2000 nM. For the same compound, the GI50 (SNB-75 CNS) was < 33.6 nM, the TGI (SNB-75 CNS) was 3070 nM and the GI50 (OVCAR-8 ovarian) was < 10 nM. The TGI (OVCAR-8 ovarian) was 45.7 nM, the GI50 (SR leukemia) was 38.6 nM and the TGI (SR leukemia) was 10300 nM. The GI50 (M14 melanoma) was < 10 nM, the TGI (M14 melanoma) was < 21.1 nM and the GI50 (HT29 colon) was < 10 nM. The TGI (HT29 colon) was 112 nM, the GI50 (CAKI-1 renal) was < 11.2 nM and the TGI (CAKI-1 renal) was 175 nM. For the same compound, the GI50 (MDA-MB-468 breast) was < 18 nM, the TGI (MDA-MB-468 breast) was 75 nM and the GI50 (SN12C renal) was < 10 nM. The GI50 (NCI/ADR-RES ovarian) was < 10 nM, the GI50 (HCC-2998 colon) was 239 nM and the TGI (HCC-2998 colon) was 1840 nM. For the same compound, the GI50 (HOP-92 NSCLC) was < 18.9 nM, the GI50 (IGROV1 ovarian) was < 13.1 nM and the TGI (IGROV1 ovarian) was 234 nM. The GI50 (UACC-257 melanoma) was 58.7 nM, the TGI (UACC-257 melanoma) was 1160 nM and the GI50 (NCI-H522 lung) was 943 nM. The TGI (NCI-H522 lung) was 2770 nM, the GI50 (UACC-62 melanoma) was 22.5 nM and the TGI (UACC-62 melanoma) was 556 nM. For the same compound, the GI50 (MOLT-4 leukemia) was < 10 nM, the TGI (MOLT-4 leukemia) was 5100 nM and the GI50 (OVCAR-5 ovarian) was < 16.2 nM. For the same compound, the TGI (OVCAR-5 ovarian) was 455 nM, the GI50 (A549 NSCLC) was < 10 nM and the TGI (A549 NSCLC) was 85 nM. The GI50 (OVCAR-3 ovarian) was 103 nM, the TGI (OVCAR-3 ovarian) was 370 nM and the GI50 (MDA-MB-231 breast) was < 10 nM. For the same compound, the TGI (MDA-MB-231 breast) was < 20 nM.
